In patent US20250205186A1, “USE OF CHLOROGENIC ACID IN PREPARING MEDICINE OR PHARMACEUTICAL COMPOSITION FOR PREVENTING OR TREATING PAIN” (SICHUAN JIUZHANG BIOLOGICAL SCIENCE AND TECHNOLOGY CO., LTD., priority 2019, published 2025):

Assays:
Format in all cases: in vivo, rat
IL-6 = assay: Serum IL-6 content by ELISA in bone cancer pain rats; settings: for Cytokines IL-6 content in serum: after 15 days of administration; for Serum level of IL-6 compared with the model-negative group: after 15 days
Protocol: 60 SD rats were randomly selected, and after anesthesia, a small 1 cm incision was made in the upper tibial skin. A 10 mL syringe needle was used to puncture and perforate, then a 10 μL syringe was inserted into the bone marrow cavity, and 3 μL cell suspension containing 3×10^3 Walker rat breast cancer cells was slowly injected. The pinhole was sealed with bone wax, and the skin was sutured. After surgery, the rats were placed on a 37° C. hot plate for rewarming. After recovery, rats were returned to the cage for further breeding, to obtain the model group. In addition, 8 SD rats were randomly selected, and an equal volume of PBS solution was injected into the marrow cavity of the left upper tibia. The rest of the operations were the same as the model group, to obtain the sham operation group. The rats that had been successfully modeled were randomly divided into groups, eight rats for each group, that included high-dose chlorogenic acid group (80 mg/kg), middle-dose chlorogenic acid group (40 mg/kg), low-dose chlorogenic acid group (20 mg/kg), model negative group (N.S normal saline), and sham operation group (N.S normal saline). The rats were intraperitoneally injected with drugs for 15 days in a volume of 0.2 mL/10 g, once a day; the model-negative group and the sham operation group were given the same volume of normal saline. After the last administration, blood was collected from the eyeballs of the rats, and the animals in each group were sacrificed by neck removal. The blood samples were allowed to stand at room temperature for 20 minutes and then centrifuged. The supernatant was collected and the contents of TNF-α, IL-1β, and IL-6 in the peripheral blood serum of the […] were determined by ELISA.

NE = NE content in brain tissue by HPLC-EC in bone cancer pain rats; settings: for NE content in the brain tissue: after 15 days of administration
Protocol: (§1) 60 SD rats were randomly selected, and after anesthesia, a small 1 cm incision was made in the upper tibial skin. A 10 mL syringe needle was used to puncture and perforate, then a 10 μL syringe was inserted into the bone marrow cavity, and 3 μL cell suspension containing […] Walker rat breast cancer cells was slowly injected. The pinhole was sealed with bone wax, and the skin was sutured. After surgery, the rats were placed on a 37° C. hot plate for rewarming. After recovery, rats were returned to the cage for further breeding, to obtain the model group. In addition, 8 SD rats were randomly selected, and an equal volume of PBS solution was injected into the marrow cavity of the left upper tibia. The rest of the operations were the same as the model group, to obtain the sham operation group. The rats that had been successfully modeled were randomly divided into groups, eight rats for each group, that included high-dose chlorogenic acid group (80 mg/kg), middle-dose chlorogenic acid group (40 mg/kg), low-dose chlorogenic acid group (20 mg/kg), model negative group (N.S normal saline), and sham operation group (N.S normal saline). The rats were intraperitoneally injected with drugs for 15 days in a volume of 0.2 mL/10 g, once a day; the model-negative group and the sham operation group were given the same volume of normal saline. After the rats were sacrificed, the hypothalamus was quickly separated, homogenized in an ice bath with perchloric acid, and centrifuged. The supernatant was collected, and the contents of NE, DA, and 5-HT were determined by HPLC-EC method (Hou […], Wang Na, et al, Effects of progesterone on morphine-induced conditioned place preference and levels of monoamine transmitters in rat brain. Chinese Journal of Pharmacology, 2006, 22(8), 980-983).

5-HT = 5-HT content in brain tissue by HPLC-EC in bone cancer pain rats; settings: for 5-HT content in the brain tissue: after 15 days of administration
Protocol: as §1

Structure (SMILES): O=C(/C=C/c1ccc(O)c(O)c1)O[C@@H]1C[C@](O)(C(=O)O)C[C@@H](O)[C@H]1O [Chlorogenic acid]
- Cytokines IL-6 content in serum (IL-6; 20 mg/kg ip once a day): 84.09 ± 5.16 ng/L
- Serum level of IL-6 compared with the model-negative group (IL-6; 20 mg/kg, p<0.05): lower than those in the model-negative group
- Cytokines IL-6 content in serum (IL-6; 40 mg/kg ip once a day): 78.73 ± 6.39 ng/L
- Serum level of IL-6 compared with the model-negative group (IL-6; 40 mg/kg, p<0.05): lower than those in the model-negative group
- Cytokines IL-6 content in serum (IL-6; 80 mg/kg ip once a day): 98.82 ± 4.54 ng/L
- Serum level of IL-6 compared with the model-negative group (IL-6; 80 mg/kg): the difference was not significant
- NE content in the brain tissue (NE; 20 mg/kg ip once a day): 0.99 ± 0.18 nmol/g
- NE content in brain tissue compared with the model-negative group (NE; 20 mg/kg, p<0.05): the difference was significant
- NE content in the brain tissue (NE; 40 mg/kg ip once a day): 0.91 ± 0.15 nmol/g
- NE content in brain tissue compared with the model-negative group (NE; 40 mg/kg, p<0.05): the difference was significant
- NE content in the brain tissue (NE; 80 mg/kg ip once a day): 1.47 ± 0.26 nmol/g
- NE content in brain tissue compared with the model-negative group (NE; 80 mg/kg, p>0.05): no significant difference
- 5-HT content in the brain tissue (5-HT; 20 mg/kg ip once a day): 0.91 ± 0.15 nmol/g
- 5-HT content in brain tissue compared with the model-negative group (5-HT; 20 mg/kg, p<0.05): the difference was significant
- 5-HT content in the brain tissue (5-HT; 40 mg/kg ip once a day): 0.95 ± 0.19 nmol/g
- 5-HT content in brain tissue compared with the model-negative group (5-HT; 40 mg/kg, p<0.05): the difference was significant
- 5-HT content in the brain tissue (5-HT; 80 mg/kg ip once a day): 0.77 ± 0.11 nmol/g
- 5-HT content in brain tissue compared with the model-negative group (5-HT; 80 mg/kg, p>0.05): no significant difference
